Values of other authors, collected in the PKSmart pharmacokinetics tables (Seal et al. 2025).
*1 amine or outer side, *2 acyl side, *3 side chain or, on linkers, in order; H or OH if unused. Where a SMILES comes first, the peptide text is derived from it. Bridges are numbered along the chain shown (N, C = ends). [ ]: non-standard residue; d: D form. The star is where a group is joined. ξ: configuration not given here. pTerphenylCO(4''-OnC5H11) = CCCCCOc1ccc(-c2ccc(-c3ccc(C(=O)*)cc3)cc2)cc1; ξOrn(4R-OH,5R-OH) = O=C(C(C[C@@H](O)[C@@H](O)N[*:3])N[*:1])[*:2]; ξhTyr(3S-OH,4S-OH) = NC(C(=O)O)[C@H](O)[C@@H](O)c1ccc(O)cc1; X4 = C[C@H]1CN([*:1])C(C(=O)[*:2])[C@H]1O; ξPro(4R-OH) = O=C(O)C1C[C@@H](O)CN1; ξThr(3R) = C[C@@H](O)C(N)C(=O)O

Assay: Lombardo, Berellini, Obach 2018, Drug Metab Dispos 46:1466, doi 10.1124/dmd.118.082966
Conditions: human; for MRT / Vd / clearance / half-life: in vivo, iv; for fraction unbound: plasma

Row | SMILES | MRT | Vd | clearance | half-life | fraction unbound
1 | CC(=O)Nc1cccc(-n2c(=O)n(C3CC3)c(=O)c3c(Nc4ccc(I)cc4F)n(C)c(=O)c(C)c32)c1 | 304 h | 13.9 L/kg | 0.8 mL/min/kg | 229 h | 
2 | C=C(CC(NC(=O)c1ccc(CCc2cnc3nc(N)nc(N)c3n2)cc1)C(=O)O)C(=O)O (stereo not given) | 3.78 h | 0.7 L/kg | 3.08 mL/min/kg | 8.2 h | 
3 | Cc1ccccc1C(=O)Nc1ccc(C(=O)N2CCC[C@H](O)c3cc(Cl)ccc32)c(C)c1 | 3.5 h | 0.5 L/kg | 2.4 mL/min/kg | 2.9 h | 0.01
4 | Nc1ccncc1 | 4.7 h | 2.6 L/kg | 9.3 mL/min/kg | 3.6 h | 1
5 | N[C@@]1(C(=O)O)CS(=O)(=O)[C@H]2C(C(=O)O)[C@H]21 (stereo not given in full) | 1.44 h | 0.21 L/kg | 2.4 mL/min/kg | 1.23 h | 
6 | C=C1/C(=C\C=C2/CCC[C@]3(C)[C@@H]([C@H](C)CCCC(C)C)CC[C@@H]23)C[C@@H](O)C[C@@H]1O |  |  | 0.82 mL/min/kg | 48.6 h | 
7 | C=Cc1c(C)c2[nH]c1=Cc1[nH]c(c(=CCC(=O)OC)c1C)=Cc1[nH]c(c(C)c1CCC(=O)O)C=C1NC(=C3C=CC(C(=O)OC)=C(C(=O)OC)[C@@]13C)C=2 | 4.9 h | 0.51 L/kg | 1.73 mL/min/kg | 6.06 h | 
8 | CN1C[C@@H]2c3ccccc3Oc3ccc(Cl)cc3[C@H]2C1 | 30.9 h | 23 L/kg | 12.4 mL/min/kg |  | 
9 | C/C(=C\c1csc(C)n1)[C@@H]1C[C@@H]2O[C@]2(C)CCC[C@H](C)[C@H](O)C(C)C(=O)C(C)(C)[C@@H](O)CC(=O)N1 (stereo not given in full) | 18 h | 11 L/kg | 10 mL/min/kg | 17 h | 0.2
10 | COP(=O)(c1cc(C)cc(/C=C/C#N)c1)c1c(C(N)=O)[nH]c2ccc(Cl)cc12 (stereo not given) | 5.5 h | 0.56 L/kg | 1.71 mL/min/kg | 4.4 h | 
11 | O=C(O)c1cc(/N=N/c2ccc(S(=O)(=O)Nc3ccccn3)cc2)ccc1O | 6.8 h | 0.11 L/kg | 0.26 mL/min/kg | 7.6 h | 0.004
12 | O=C(Cc1cccs1)NC1C(=O)N2C(C(=O)[O-])=C(C[n+]3ccccc3)CS[C@H]12 (stereo not given in full) | 2.3 h | 0.46 L/kg | 3.3 mL/min/kg | 1.5 h | 0.8
13 | COC(=O)C(c1ccccc1)[C@H]1CCCCN1 (stereo not given in full) | 6.62 h | 2.65 L/kg | 6.67 mL/min/kg | 8 h | 0.87
14 | Cn1c(CNc2ccc(C(=N)N)cc2)nc2cc(C(=O)N(CCC(=O)O)c3ccccn3)ccc21 | 7.4 h | 0.85 L/kg | 1.93 mL/min/kg | 7.3 h | 0.65
15 | CC1(C)S[C@@H]2C(NC(=O)COc3ccccc3)C(=O)N2C1C(=O)O (stereo not given in full) | 1 h | 0.41 L/kg | 6.8 mL/min/kg | 0.84 h | 
16 | CC(C)(N)CC(=O)NC1CCc2ccccc2N(Cc2ccc(-c3ccccc3-c3nnn[nH]3)cc2)C1=O (stereo not given) | 1.1 h | 0.2 L/kg | 3.05 mL/min/kg | 3.8 h | 0.06
17 | CC(CCc1ccccc1)NCC(O)c1ccc(O)c(C(N)=O)c1 (stereo not given) |  |  | 23 mL/min/kg | 4.4 h | 

Row | SMILES | MRT | Vd | clearance | half-life | fraction unbound
18 | Cn1c(COP(=O)(NCCBr)NCCBr)cnc1[N+](=O)[O-] | 0.72 h | 0.64 L/kg | 14.8 mL/min/kg | 1 h | 
19 | Nc1nc(=O)c2c([nH]1)NCC(CNc1ccc(C(=O)NC(CCC(=O)O)C(=O)O)cc1)N2C=O (stereo not given) | 0.8 h | 0.25 L/kg | 5.8 mL/min/kg | 1.3 h | 
20 | CN1[C@@H]2C[C@@H](OC(=O)C(CO)c3ccccc3)C[C@H]1[C@@H]1O[C@@H]12 (stereo not given in full) | 3.2 h |  |  |  | 
21 | CCC(=O)NC[C@@H]1C[C@H]1c1cccc2c1CCO2 | 0.62 h | 0.33 L/kg | 9.04 mL/min/kg | 0.75 h | 
22 | C#C[C@]1(O)C=C[C@H]2[C@@H]3CC=C4CC(=O)CCC4[C@H]3CC[C@@]21CC (stereo not given in full) | 9.6 h | 0.46 L/kg | 0.8 mL/min/kg | 10 h | 0.023
23 | CC(C)=CCC[C@](C)(O[C@@H]1O[C@H](CO)[C@@H](O)[C@H](O)[C@H]1O)[C@H]1CC[C@]2(C)[C@@H]1[C@H](O)C[C@@H]1[C@@]3(C)CC[C@H](O[C@@H]4O[C@H](CO)[C@@H](O)[C@H](O)[C@H]4O[C@@H]4O[C@H](CO)[C@@H](O)[C@H](O)[C@H]4O)C(C)(C)[C@@H]3CC[C@]12C | 20.2 h | 0.11 L/kg | 0.09 mL/min/kg | 18.5 h | 
24 | CC(=O)C1CC[C@H]2[C@@H]3CC[C@@H]4C[C@H](O)CC[C@]4(C)[C@H]3CC[C@]12C (stereo not given in full) | 1.5 h | 2 L/kg | 22 mL/min/kg | 4.7 h | 0.01
25 | CC(NC(CCc1ccccc1)C(=O)O)C(=O)N1CCCC1C(=O)O (stereo not given) | 4 h | 0.38 L/kg | 1.6 mL/min/kg | 39 h | 
26 | Cc1ccccc1N1C(=O)c2cc(S(N)(=O)=O)c(Cl)cc2NC1C (stereo not given) | 19 h | 1.6 L/kg | 1.4 mL/min/kg | 20 h | 
27 | CCN(CC)c1ccc2cc(C(=O)Nc3ccc4[nH]c(C(=O)N5C[C@@H](CCl)c6c5cc(OC(=O)Nc5ccccc5)c5[nH]cc(C)c65)cc4c3)oc2c1 | 0.51 h | 0.09 L/kg | 2.9 mL/min/kg | 0.48 h | 
28 | CCC[C@@H]1CC(=O)N(C(CC)C(N)=O)C1 (stereo not given in full) | 12.5 h | 0.56 L/kg | 0.75 mL/min/kg | 8.98 h | 0.825
29 | CCCCCOc1ccc(-c2ccc(-c3ccc(C(=O)NC4C[C@@H](O)[C@@H](O)NC(=O)C5[C@@H](O)[C@@H](C)CN5C(=O)C([C@@H](C)O)NC(=O)C([C@H](O)[C@@H](O)c5ccc(O)cc5)NC(=O)C5C[C@@H](O)CN5C(=O)C([C@@H](C)O)NC4=O)cc3)cc2)cc1 (stereo partly drawn) ({pTerphenylCO(4''-OnC5H11)}-[ξOrn(4R-OH,5R-OH)][ξThr(3R)][ξPro(4R-OH)][ξhTyr(3S-OH,4S-OH)][ξThr(3R)][X4]; lactam 1-C) | 45 h | 0.57 L/kg | 0.21 mL/min/kg | 40 h | 
30 | CCC(=O)O[C@H](CC(=O)[O-])C[N+](C)(C)C | 2.15 h | 0.3 L/kg | 2.33 mL/min/kg | 1.28 h | 
31 | CON=C(C(=O)NC1C(=O)N2C(C(=O)O)=C(CN3C=CN4NC=CC=C34)CS[C@H]12)c1nsc(N)n1 (stereo not given in full) | 2 h | 0.24 L/kg | 2.1 mL/min/kg | 1.7 h | 0.74
32 | C[C@@H](OC[C@@]1(c2ccccc2)CC[C@]2(CCC(=O)N2)CN1)c1cc(C(F)(F)F)cc(C(F)(F)F)c1 |  |  | 0.38 mL/min/kg | 148 h | 0.002
33 | COc1c(N2C[C@@H](C)C[C@H](N)C2)ccc2c(=O)c(C(=O)O)cn(C3CC3)c12 | 8.4 h | 1.9 L/kg | 3.8 mL/min/kg | 13.5 h | 
